The assay deals with Isolated Rat Bladder Strips. Put plainly: Inhibition of contractions in isolated rat bladder strips (KCl-enhanced contractile activity). More on the design: species or system Sprague-Dawley rats. As to conditions: 0.5 h, concentration required to elicit 50% inhibition of pre-drug contractile activity, additional 15 mM KCl, 30 minute challenge per concentration, value ± spread as printed. An excerpt:
Sprague-Dawley rats (150-200 g) are rendered unconscious by CO2 asphyxiation and then euthanized by cervical dislocation. The bladder is removed into warm (37 deg.C) physiological salt solution (PSS) of the following composition (mM): NaCl, 118.4; KCl, 4.7; CaCl2, 2.5; […]; NaHCO3, 24.9; KH2PO4, 1.2; glucose, 11.1; EDTA, 0.023; gassed with […]; pH 7.4. The bladder is opened and then cut into strips 1-2 mm in width and 7-10 mm in length. The strips are subsequently suspended in a 10 mL tissue bath under an initial resting tension of 1.5 g. The strips are held in place by two surgical clips one of which is attached to a fixed hook while the other is attached to an isometric force transducer. […] The carbachol is then washed out and the tissue allowed to relax to its resting level of activity. Following a further 30 min period of recovery an additional 15 mM KCl are introduced into the tissue bath. This increase in KCI concentration results in a large increase in the amplitude of spontaneous contractions (and initiation of contractions in previously quiescent strips) superimposed upon a small increase in basal tone. Following stabilization of this enhanced level of contractile activity, incremental increases in the concentration of test compound or vehicle are introduced into the tissue bath. Contractile activity is measured for each compound or vehicle concentration during the last minute of a 30 minute challenge.
The isometric force developed by the bladder strips is measured using a […] to elicit 50% inhibition of pre-drug contractile activity (IC50 concentration) is calculated from this concentration-response curve.

The IC50 is the concentration that gives 50% inhibition.

`CC(=O)N(c1ccc(C#N)cc1)c1c(NC2CC3CCC2C3)c(=O)c1=O` (racemic) [Example 17, N-(endo)-[2-(Bicyclo[2,2,1]hept-2-ylamino)-3,4-dioxo-cyclobut-1-enyl]-N-(4-cyano-phenyl)-acetamide]: the IC50 worked out at 1840 ± 360 nM.

With `CC(=O)N(c1ccncc1)c1c(NC2CC3CCC2C3)c(=O)c1=O` (racemic) [Example 21, (endo)-N-[2-(Bicyclo[2,2,1]hept-2-ylamino)-3,4-dioxo-cyclobut-1-enyl]-N-(pyridin-4-yl)-acetamide], the IC50 worked out at 10600 nM.

Turning to `CCC(=O)N(c1ccc(C#N)cc1)c1c(NC(C)C(C)(C)C)c(=O)c1=O` (stereo not drawn) [Example 1, N-(4-Cyano-phenyl)-N-[3,4-dioxo-2-(1,2,2-trimethyl-propylamino)-cyclobut-1-enyl]-propionamide], the IC50 is 500 nM.

For the molecule `CC(Nc1c(N(C(=O)c2ccccc2)c2ccc(C#N)cc2)c(=O)c1=O)C(C)(C)C` (stereo not drawn) [Example 2, N-(4-Cyano-phenyl)-N-[3,4-dioxo-2-(1,2,2-trimethyl-propylamino)-cyclobut-1-enyl]-benzamide], the IC50 came to 290 ± 40 nM.

`CCCCCC(=O)N(c1ccc(C#N)cc1)c1c(NC(C)C(C)(C)C)c(=O)c1=O` (stereo not drawn) [Example 5, Hexanoic acid (4-cyano-phenyl)-[3,4-dioxo-2-(1,2,2-trimethyl-propylamino)-cyclobut-1-enyl]-amide]: the IC50 came to 350 ± 100 nM.

`CC(C)C(=O)N(c1ccc(C#N)cc1)c1c(NC(C)C(C)(C)C)c(=O)c1=O` (stereo not drawn) [Example 6, N-(4-Cyano-phenyl)-N-[3,4-dioxo-2-(1,2,2-trimethyl-propylamino)-cyclobut-1-enyl]-isobutyramide]: the IC50 is 570 ± 200 nM.

In the case of `CC(Nc1c(N(C(=O)C=Cc2ccccc2)c2ccc(C#N)cc2)c(=O)c1=O)C(C)(C)C` (stereo not drawn) [Example 7, N-(4-Cyano-phenyl)-N-[3,4-dioxo-2-(1,2,2-trimethyl-propylamino)cyclobut-1-enyl]-3-phenyl-acrylamide], the half-inhibitory concentration (IC50) was found to be 370 ± 80 nM.

`CC(=O)N(c1ccc(C#N)cc1)c1c(NC(C)C(C)(C)C)c(=O)c1=O` (stereo not drawn) [Example 9, N-(4-Cyano-phenyl)-N-[3,4-dioxo-2-(1,2,2-trimethyl-propylamino)-cyclobut-1-enyl]-acetamide]: the IC50 was determined as 230 ± 50 nM.

With `CC(=O)N(c1ccc(C#N)cc1)c1c(N[C@H](C)C(C)(C)C)c(=O)c1=O` [Example 10, (R)-(-)-N-(4-Cyano-phenyl)-N-[3,4-dioxo-2-(1,2,2-trimethyl-propylamino)-cyclobut-1-enyl]-acetamide], the concentration for half-maximal inhibition (IC50) turned out to be 310 ± 50 nM.

Take `CC(=O)N(c1ccc(C#N)cc1)c1c(NC(C)C)c(=O)c1=O` [Example 11, N-(4-Cyano-phenyl)-N-[3,4-dioxo-2-isopropylamino-cyclobut-1-enyl]-acetamide]: the concentration for half-maximal inhibition (IC50) turned out to be 9700 ± 4100 nM.

Consider `CC(=O)N(c1ccc(C#N)cc1)c1c(NC(C)C(C)C)c(=O)c1=O` (stereo not drawn) [Example 13, N-(4-Cyano-phenyl)-N-[2-(1,2-dimethyl-propylamino)-3,4-dioxo-cyclobut-1-enyl]-acetamide], for which the IC50 is 200 ± 100 nM.

As for `CC(=O)N(c1cccc(C#N)c1)c1c(NC(C)C(C)(C)C)c(=O)c1=O` (stereo not drawn) [Example 14, N-(3-Cyano-phenyl)-N-[3,4-dioxo-2-(1,2,2-trimethyl-propylamino)-cyclobut-1-enyl]-acetamide], the IC50 was found to be 3200 ± 920 nM.

With `CCCCNc1c(N(C(C)=O)c2ccc(C#N)cc2)c(=O)c1=O` [Example 16, N-(2-Butylamino-3,4-dioxo-cyclobut-1-enyl)-N-(4-cyano-phenyl)-acetamide], the IC50 came out at 1240 ± 540 nM.

As to `CC(=O)N(c1cccnc1)c1c(N[C@H](C)C(C)(C)C)c(=O)c1=O` [Example 23, (R)-N-[3,4-Dioxo-2-(1,2,2-trimethyl-propylamino)-cyclobut-1-enyl]-N-(pyridin-3-yl)-acetamide], the IC50 was 7200 ± 1600 nM.

For the molecule `CC(=O)N(c1ccncc1)c1c(N[C@H](C)C(C)(C)C)c(=O)c1=O` [Example 24, (R)-N-[3,4-Dioxo-2-(1,2,2-trimethyl-propylamino)-cyclobut-1-enyl]-N-(pyridin-4-yl)-acetamide], the IC50 stood at 2500 ± 200 nM.

With `CC(C)CC(=O)N(c1ccncc1)c1c(N[C@H](C)C(C)(C)C)c(=O)c1=O` [Example 25, (R)-N-[3,4-Dioxo-2-(1,2,2-trimethyl-propylamino)-cyclobut-1-enyl]-3-methyl-N-(pyridin-4-yl)-butyramide], the IC50 was 10800 ± 1600 nM.

`CCCCC(=O)N(c1ccncc1)c1c(N[C@H](C)C(C)(C)C)c(=O)c1=O` [Example 26, (R)-(-)-N-(3,4-Dioxo-2-(1,2,2-trimethyl-propylamino)-cyclobut-1-enyl]-N-(pyridin-4-yl)-pentylamide]: the IC50 is 4900 ± 1200 nM.

Regarding `CCCC(=O)N(c1ccc(C#N)cc1CC)c1c(N[C@H](C)C(C)(C)C)c(=O)c1=O` [Example 27, (R)-(-)-N-(4-Cyano-2-ethyl-phenyl)-N-[3,4-dioxo-2-(1,2,2-trimethyl-propylamino)-cyclobut-1-enyl]-butyramide], the 50% inhibitory concentration (IC50) came out at 170 ± 4 nM.

With `CCC(=O)N(c1ccc(C#N)cc1CC)c1c(N[C@H](C)C(C)(C)C)c(=O)c1=O` [Example 28, (R)-N-(4-Cyano-2-ethyl-phenyl)-N-[3,4-dioxo-2-(1,2,2-trimethyl-propylamino)-cyclobut-1-enyl]-propionamide], the half-maximal inhibitory concentration (IC50) was determined as 220 ± 200 nM.

On to `C/C=C/C(=O)N(c1ccc(C#N)cc1CC)c1c(N[C@H](C)C(C)(C)C)c(=O)c1=O` [Example 29, (R)-(-)-N-(4-Cyano-2-ethylphenyl)-N-[3,4-dioxo-2-(1,2,2-trimethyl-propylamino)-cyclobut-1-enyl]-crotonamide], for which the IC50 came to 270 ± 20 nM.

For the molecule `CCc1cc(C#N)ccc1N(C(C)=O)c1c(N[C@H](C)C(C)(C)C)c(=O)c1=O` [Example 30, (R)-(-)-N-(4-Cyano-2-ethyl-phenyl)-N-[3,4-dioxo-2-(1,2,2-trimethyl-propylamino)-cyclobut-1-enyl]-acetamide], the IC50 was determined as 350 ± 100 nM.

For the molecule `CCCCC(=O)N(c1ccc(C#N)cc1CC)c1c(N[C@H](C)C(C)(C)C)c(=O)c1=O` [Example 31, (R)-(-)-N-(4-Cyano-2-ethyl-phenyl)-N-[3,4-dioxo-2-(1,2,2-trimethyl-propylamino)-cyclobut-1-enyl]-pentanamide], the IC50 was 610 ± 200 nM.

As for `CCc1cc(C#N)ccc1N(C(=O)C1CCCCC1)c1c(N[C@H](C)C(C)(C)C)c(=O)c1=O` [Example 32, (R)-(-)-N-(4-cyano-2-ethyl-phenyl)-N-[3,4-dioxo-2-(1,2,2-trimethyl-propylamino)-cyclobut-1-enyl]-cyclohexanecarboxamide], the half-maximal inhibitory concentration (IC50) turned out to be 630 ± 65 nM.

Consider `CC(=O)N(c1ccc(C#N)c(Cl)c1)c1c(N[C@H](C)C(C)(C)C)c(=O)c1=O` [Example 33, (R)-(-)-N-(3-Chloro-4-cyano-phenyl)-N-[3,4-dioxo-2-(1,2,2-trimethyl-propylamino)-cyclobut-1-enyl]-acetamide], for which the IC50 turned out to be 190 ± 10 nM.
